{
  "source": "patent US10253002B2",
  "about": "“Compounds and methods of treating infections” (Neoculi Pty Ltd., priority 2013, dated 2019)",
  "key": {"S. pneumoniae isolates": {"system": "S. pneumoniae isolates", "test": "Disk diffusion susceptibility (CLSI/EUCAST), Example 5", "type": "cell-based, Streptococcus pneumoniae", "experimental": "Isolate susceptibility to 12 different antimicrobials (Table 16) was determined by CLSI and European Committee on Antimicrobial Susceptibility Testing (EUCAST) methods. Antimicrobials were selected based upon the CLSI and EUCAST guidelines. Standardised bacterial suspensions were spread onto MHSBA using a sterile cotton swab. Bacterial suspensions from of Streptococcus pneumoniae were standardised to an OD6O0 between 0.08 and 0.1 using a spectrophotometer and then diluted 1:20. Bacterial colonies were taken from an O/N horse blood agar plate. To ensure the purity of the 1:20 bacterial suspension, 50 μL was spread plated onto horse blood agar and incubated O/N at 37° C. with 5% CO2. The CFU was calculated and compared to the initial plate counts. Antibiotic disks (Purchased from Sigma Aldrich) were placed using a disk dispenser (Purchased from Oxoid) according to CLSI standards. MHSBA plates were incubated for 16 h-24 h at 37° C. in 5% CO2. Zones of complete inhibition were measured in triplicate to the nearest millimeter using a ruler on natural light-reflected growth, and the mode was represented as the diameter for each isolate. Pneumococcal isolates were categorised as sensitive, intermediate (I) or resistant (R) by CLSI standards and quality control (QC) ranges (Table 16)."}, "Pseudomonas aeruginosa": {"system": "Pseudomonas aeruginosa", "test": "Broth microdilution MIC, Example 7 (NCL812 and analogues)", "type": "cell-based", "conditions": "P. aeruginosa; 24 hours; duplicate lines per compound"}, "VRE": {"system": "VRE", "test": "Broth microdilution MIC, Example 7 (NCL812 and analogues)", "type": "cell-based, Enterococcus spp.", "conditions": "24 hours, duplicate lines per compound", "how_it_was_run": "(§1)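 Values are MICs in μg/ml from broth microdilution per CLSI, with growth scored against a drug-free well.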"}, "Escherichia coli": {"system": "Escherichia coli", "test": "Broth microdilution MIC, Example 7 (NCL812 and analogues)", "type": "cell-based", "conditions": "E. coli; 24 hours; duplicate lines per compound"}, "MRSA": {"system": "MRSA", "test": "Broth microdilution MIC, Example 7 (NCL812 and analogues)", "type": "cell-based, Staphylococcus aureus", "conditions": "24 hours, duplicate lines per compound", "how_it_was_run": "as §1"}},
  "data": [
    {"smiles": "CC[C@H]1OC(=O)[C@H](C)[C@@H](O[C@H]2C[C@@](C)(OC)[C@@H](O)[C@H](C)O2)[C@H](C)[C@@H](O[C@@H]2O[C@H](C)C[C@H](N(C)C)[C@H]2O)[C@](C)(OC)C[C@@H](C)C(=O)[C@H](C)[C@@H](O)[C@]1(C)O", "note": "[Clarithromycin]", "values": [
      {"measurement": "disk diffusion zone diameter", "setting": "S. pneumoniae isolates; A66.1", "value": 30, "unit": "mm"},
      {"measurement": "disk diffusion zone diameter", "setting": "S. pneumoniae isolates; D39", "value": 32, "unit": "mm"},
      {"measurement": "disk diffusion zone diameter", "setting": "S. pneumoniae isolates; EF3030", "value": 32, "unit": "mm"},
      {"measurement": "disk diffusion zone diameter", "setting": "S. pneumoniae isolates; L82016", "value": 34, "unit": "mm"},
      {"measurement": "disk diffusion zone diameter", "setting": "S. pneumoniae isolates; P9", "value": 40, "unit": "mm"},
      {"measurement": "disk diffusion zone diameter", "setting": "S. pneumoniae isolates; P21", "value": 38, "unit": "mm"},
      {"measurement": "disk diffusion zone diameter", "setting": "S. pneumoniae isolates; TIGR4", "value": 35, "unit": "mm"},
      {"measurement": "disk diffusion zone diameter", "setting": "S. pneumoniae isolates; WCH16", "value": 33, "unit": "mm"},
      {"measurement": "disk diffusion zone diameter", "setting": "S. pneumoniae isolates; WCH43", "value": 28, "unit": "mm"},
      {"measurement": "disk diffusion zone diameter", "setting": "S. pneumoniae isolates; WCH46", "value": 39, "unit": "mm"},
      {"measurement": "disk diffusion zone diameter", "setting": "S. pneumoniae isolates; WCH57", "value": 39, "unit": "mm"},
      {"measurement": "disk diffusion zone diameter", "setting": "S. pneumoniae isolates; WCH77", "value": 37, "unit": "mm"},
      {"measurement": "disk diffusion zone diameter", "setting": "S. pneumoniae isolates; WCH86", "value": 36, "unit": "mm"},
      {"measurement": "disk diffusion zone diameter", "setting": "S. pneumoniae isolates; WCH89", "value": 31, "unit": "mm"},
      {"measurement": "disk diffusion zone diameter", "setting": "S. pneumoniae isolates; WCH92", "value": 27, "unit": "mm"},
      {"measurement": "disk diffusion zone diameter", "setting": "S. pneumoniae isolates; WCH137", "value": 33, "unit": "mm"},
      {"measurement": "disk diffusion zone diameter", "setting": "S. pneumoniae isolates; WCH158", "value": 38, "unit": "mm"},
      {"measurement": "disk diffusion zone diameter", "setting": "S. pneumoniae isolates; WCH184", "value": 10, "unit": "mm"},
      {"measurement": "disk diffusion susceptibility category", "setting": "S. pneumoniae isolates; WCH184 (Table 18)", "value": "R"},
      {"measurement": "disk diffusion zone diameter", "setting": "S. pneumoniae isolates; WCH211", "value": 33, "unit": "mm"},
      {"measurement": "disk diffusion zone diameter", "setting": "S. pneumoniae isolates; WU2", "value": 31, "unit": "mm"}
    ]},
    {"smiles": "CCO/C(N)=N/N=C(\\C)c1ccc(Cl)cc1", "note": "[NCL 162]", "values": [
      {"measurement": "MIC (μg/ml) at 24 hours, P. aeruginosa", "setting": "Pseudomonas aeruginosa", "value": ">128", "unit": "µg/mL"},
      {"measurement": "MIC (μg/ml) at 24 hours, VRE 1", "setting": "VRE", "value": ">128", "unit": "µg/mL"},
      {"measurement": "MIC (μg/ml) at 24 hours, VRE 2", "setting": "VRE", "value": ">128", "unit": "µg/mL"},
      {"measurement": "MIC (μg/ml) at 24 hours, E. coli", "setting": "Escherichia coli", "value": ">128", "unit": "µg/mL"},
      {"measurement": "MIC (μg/ml) at 24 hours, MRSA 1", "setting": "MRSA", "value": ">128", "unit": "µg/mL"},
      {"measurement": "MIC (μg/ml) at 24 hours, MRSA 2", "setting": "MRSA", "value": 128, "unit": "µg/mL"}
    ]},
    {"smiles": "Cl.N=C(NN=C1C(=O)Nc2ccccc21)NN=C1C(=O)Nc2ccccc21", "note": "[NCL 163]", "values": [
      {"measurement": "MIC (μg/ml) at 24 hours, P. aeruginosa", "setting": "Pseudomonas aeruginosa", "value": ">128", "unit": "µg/mL"},
      {"measurement": "MIC (μg/ml) at 24 hours, VRE 1", "setting": "VRE", "value": ">128", "unit": "µg/mL"},
      {"measurement": "MIC (μg/ml) at 24 hours, VRE 2", "setting": "VRE", "value": ">128", "unit": "µg/mL"},
      {"measurement": "MIC (μg/ml) at 24 hours, E. coli", "setting": "Escherichia coli", "value": ">128", "unit": "µg/mL"},
      {"measurement": "MIC (μg/ml) at 24 hours, MRSA 1", "setting": "MRSA", "value": ">128", "unit": "µg/mL"},
      {"measurement": "MIC (μg/ml) at 24 hours, MRSA 2", "setting": "MRSA", "value": ">128", "unit": "µg/mL"}
    ]},
    {"smiles": "CC(=NNC(=N)NN=C(C)c1ccc(Cl)cc1N)c1ccc(Cl)cc1N.Cl", "note": "[NCL 164]", "values": [
      {"measurement": "MIC (μg/ml) at 24 hours, P. aeruginosa", "setting": "Pseudomonas aeruginosa", "value": ">128", "unit": "µg/mL"},
      {"measurement": "MIC (μg/ml) at 24 hours, VRE 1", "setting": "VRE", "value": ">128", "unit": "µg/mL"},
      {"measurement": "MIC (μg/ml) at 24 hours, VRE 2", "setting": "VRE", "value": ">128", "unit": "µg/mL"},
      {"measurement": "MIC (μg/ml) at 24 hours, E. coli", "setting": "Escherichia coli", "value": ">128", "unit": "µg/mL"},
      {"measurement": "MIC (μg/ml) at 24 hours, MRSA 1", "setting": "MRSA", "value": ">128", "unit": "µg/mL"},
      {"measurement": "MIC (μg/ml) at 24 hours, MRSA 2", "setting": "MRSA", "value": ">128", "unit": "µg/mL"}
    ]},
    {"smiles": "Cl.Cl.Cl.N=C(NN=C(CN)c1ccccc1)NN=C(CN)c1ccccc1", "note": "[NCL 165]", "values": [
      {"measurement": "MIC (μg/ml) at 24 hours, P. aeruginosa", "setting": "Pseudomonas aeruginosa", "value": ">128", "unit": "µg/mL"},
      {"measurement": "MIC (μg/ml) at 24 hours, VRE 1", "setting": "VRE", "value": ">128", "unit": "µg/mL"},
      {"measurement": "MIC (μg/ml) at 24 hours, VRE 2", "setting": "VRE", "value": ">128", "unit": "µg/mL"},
      {"measurement": "MIC (μg/ml) at 24 hours, E. coli", "setting": "Escherichia coli", "value": ">128", "unit": "µg/mL"},
      {"measurement": "MIC (μg/ml) at 24 hours, MRSA 1", "setting": "MRSA", "value": ">128", "unit": "µg/mL"},
      {"measurement": "MIC (μg/ml) at 24 hours, MRSA 2", "setting": "MRSA", "value": ">128", "unit": "µg/mL"}
    ]},
    {"smiles": "Cl.N=C(NN=Cc1ccc(SC(F)(F)F)cc1)NN=Cc1ccc(SC(F)(F)F)cc1", "note": "[NCL 166]", "values": [
      {"measurement": "MIC (μg/ml) at 24 hours, P. aeruginosa", "setting": "Pseudomonas aeruginosa", "value": ">128", "unit": "µg/mL"},
      {"measurement": "MIC (μg/ml) at 24 hours, VRE 1", "setting": "VRE", "value": 8, "unit": "µg/mL"},
      {"measurement": "MIC (μg/ml) at 24 hours, VRE 2", "setting": "VRE", "value": 128, "unit": "µg/mL"},
      {"measurement": "MIC (μg/ml) at 24 hours, E. coli", "setting": "Escherichia coli", "value": ">128", "unit": "µg/mL"},
      {"measurement": "MIC (μg/ml) at 24 hours, MRSA 1", "setting": "MRSA", "value": 32, "unit": "µg/mL"},
      {"measurement": "MIC (μg/ml) at 24 hours, MRSA 2", "setting": "MRSA", "value": 64, "unit": "µg/mL"}
    ]},
    {"smiles": "Cl.N=C(NN=C(C(=O)O)c1ccccc1)NN=C(C(=O)O)c1ccccc1", "note": "[NCL 167]", "values": [
      {"measurement": "MIC (μg/ml) at 24 hours, P. aeruginosa", "setting": "Pseudomonas aeruginosa", "value": ">128", "unit": "µg/mL"},
      {"measurement": "MIC (μg/ml) at 24 hours, VRE 1", "setting": "VRE", "value": ">128", "unit": "µg/mL"},
      {"measurement": "MIC (μg/ml) at 24 hours, VRE 2", "setting": "VRE", "value": ">128", "unit": "µg/mL"},
      {"measurement": "MIC (μg/ml) at 24 hours, E. coli", "setting": "Escherichia coli", "value": ">128", "unit": "µg/mL"},
      {"measurement": "MIC (μg/ml) at 24 hours, MRSA 1", "setting": "MRSA", "value": ">128", "unit": "µg/mL"},
      {"measurement": "MIC (μg/ml) at 24 hours, MRSA 2", "setting": "MRSA", "value": ">128", "unit": "µg/mL"}
    ]},
    {"smiles": "CC(O)Nc1cc(Cl)ccc1C=NNC(=N)NN=Cc1ccc(Cl)cc1NC(C)O.Cl", "note": "(stereo not drawn) [NCL 168]", "values": [
      {"measurement": "MIC (μg/ml) at 24 hours, P. aeruginosa", "setting": "Pseudomonas aeruginosa", "value": ">128", "unit": "µg/mL"},
      {"measurement": "MIC (μg/ml) at 24 hours, VRE 1", "setting": "VRE", "value": 64, "unit": "µg/mL"},
      {"measurement": "MIC (μg/ml) at 24 hours, VRE 2", "setting": "VRE", "value": 32, "unit": "µg/mL"},
      {"measurement": "MIC (μg/ml) at 24 hours, E. coli", "setting": "Escherichia coli", "value": ">128", "unit": "µg/mL"},
      {"measurement": "MIC (μg/ml) at 24 hours, MRSA 1", "setting": "MRSA", "value": 32, "unit": "µg/mL"},
      {"measurement": "MIC (μg/ml) at 24 hours, MRSA 2", "setting": "MRSA", "value": 32, "unit": "µg/mL"}
    ]}
  ]
}
